# Data reported in PubChem BioAssay (NCI).
#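 In this assay, cells in 96-well plates receive the compound at five concentrations for 48 hours. Endpoints are linearly interpolated between the surrounding concentrations. TGI denotes the concentration required for complete inhibition of growth.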
# Columns and labels:
# Test in all cases: inhibition of tumour cell growth, NCI panel, 48 h
# UACC-62 melanoma = test system: UACC-62 melanoma
# T-47D breast = test system: T-47D breast
# RPMI-8226 leukemia = test system: RPMI-8226 leukemia
# NCI-H522 lung = test system: NCI-H522 lung
# RXF 393 renal = test system: RXF 393 renal
# SN12C renal = test system: SN12C renal
# HL-60(TB) leukemia = test system: HL-60(TB) leukemia
# MOLT-4 leukemia = test system: MOLT-4 leukemia
# SK-MEL-28 melanoma = test system: SK-MEL-28 melanoma
# CCRF-CEM leukemia = test system: CCRF-CEM leukemia
SMILES,TGI (UACC-62 melanoma) [µM],TGI (T-47D breast) [µM],TGI (RPMI-8226 leukemia) [µM],TGI (NCI-H522 lung) [µM],TGI (RXF 393 renal) [µM],TGI (SN12C renal) [µM],TGI (HL-60(TB) leukemia) [µM],TGI (MOLT-4 leukemia) [µM],TGI (SK-MEL-28 melanoma) [µM],TGI (CCRF-CEM leukemia) [µM]
COCN1CCN=c2c1c1c3c(c4ccccc4n23)CCC1,> 100,> 100,> 100,> 100,> 100,> 100,> 100,> 100,> 100,> 100
COC(=O)c1ccc(CCc2cc(O)ccc2O)cc1,33.9,7.91,4.16,2.16,20.9,29.3,5.96,15.3,42.2,> 26.8
Cc1cc(NS(=O)(=O)c2ccc(NC(=O)c3cccc4c(NNc5ccc(S(=O)(=O)N=C(N)N)cc5)c5ccccc5nc34)cc2)no1,> 100,> 100,> 100,96.6,> 100,> 100,75.6,74.9,> 100,82.3
Cc1cc2ccccc2n1CC(=O)N1CCCC1,> 100,> 100,> 100,> 100,> 100,> 100,> 100,> 100,> 100,> 100
COc1ccc(/C=C2\CC3C4CC=C5C[C@@H](O)CC[C@]5(C)C4CC[C@]3(C)\C2=N\O)cc1OC (stereo partly drawn),25.6,> 100,> 100,> 100,> 100,> 100,> 100,> 100,> 100,> 100
CN(C)CCOC(=O)c1ccc(N)cc1,> 100,> 100,75.2,68.1,> 100,> 100,83.7,61.5,67.5,69.8
O=C1CSC2=NCC3(NN12)c1ccccc1-c1ccccc13,> 10,> 10,> 10,> 10,> 10,> 10,> 10,> 10,> 10,> 10
O=C(Nc1nnc(-c2ccccc2)o1)C(SC(=S)N1CCOCC1)c1ccccc1 (stereo not drawn),,> 100,> 100,93.5,> 100,> 100,36.3,83.1,> 100,> 100
CCOC(=O)C(NC(=O)CC(C)C)(Nc1ccc(C(F)(F)F)cc1)C(F)(F)F (stereo not drawn),,81.8,93.8,> 100,> 100,> 100,59.9,> 100,> 100,> 100
